The values below come from publication PMC3779154, “Identification of Therapeutic Candidates for Chronic Lymphocytic Leukemia from a Library of Approved Drugs” (PLoS ONE, 2013).

Where two headings read alike, the source gives them in different places. Some results are limits rather than exact numbers.

For data set [1], the system named is ME-180 human cervical carcinoma cell line. Briefly: Cell viability assay, ME-180 cells (NPC library profiling). From the text:
Based on the definition of actives, inactives and inconclusive mentioned above, compounds were further clustered hierarchically using Spotfire DecisionSite 8.2 (Spotfire Inc., Cambridge, MA) based on their activity outcomes from the primary screen across a wide variety of cell viability assays against different cell lines or primary patient cells. Each compound was converted into an integer which represents its activity outcome in each cell viability assay. […] Integer 2 represents compounds in “inconclusive” category which is corresponding to light red in the heat map. […] Compounds not tested in the assay were labeled as 4 and shown as grey in the heat map.

Data set [2] relates to lymphocytes from normal donors. Particulars: for difference in efficacy between CLL and unaffected donor samples: at 19 µM and 57 µM, the two highest testing concentrations; for potency shift between CLL and normal donor samples: fresh cells, normal IC50 vs CLL IC50; for IC50: read-out: IC50 normal, average of 2 normal donors, fresh, Figure 5; for decreased efficacy to normal B cells: versus CLL cells.
Protocol: (§3) Cell viability was measured using a luciferase-based ATP quantitation assay (CellTiter-Glo^TM, Promega). The intracellular ATP content indicates the number of viable (i.e. metabolically competent) cells after compound treatment. Four µL of CLL cells resuspended in AIM medium at 1,330,000 cells/ml, were dispensed into each well of white, solid bottom, 1536-well tissue culture–treated plates using a Multidrop-Combi dispenser and incubated overnight. After that, a total of 23 nL of compounds at 8 selected concentrations from the NPC library or positive control (10 mM stock of doxorubicin hydrochloride) in DMSO was transferred to each well of the assay plate using a pintool (Kalypsys, San Diego, CA), and the plates were further incubated at 37 °C with 5% CO2 for 24 hours to allow the reaction. Then 4µL of CellTilter-Glo luminescent substrate mix was added to each well. The plate was incubated at room temperature for 15 minutes. The plates were measured on a ViewLux plate reader (PerkinElmer) with clear filter.
(§4) These compounds were then re-tested in the cell viability assay using 12 point titrations with concentration ranging from 57 µM to 0.3 nM with 1:3 dilution.
(§5) Fresh primary cells were also obtained from two unaffected normal donors and seven CLL patients whose blood samples were collected within hours of apheresis and which had not been included in our previous experiments.

Data set [3] has as its system fresh CLL patient lymphocytes.
Protocol: (§6) Cell viability was measured using a luciferase-based ATP quantitation assay (CellTiter-Glo^TM, Promega). The intracellular ATP content indicates the number of viable (i.e. metabolically competent) cells after compound treatment. […] After that, a total of 23 nL of compounds at 8 selected concentrations from the NPC library or positive control (10 mM stock of doxorubicin hydrochloride) in DMSO was transferred to each well of the assay plate using a pintool (Kalypsys, San Diego, CA), and the plates were further incubated at 37 °C with 5% CO2 for 24 hours to allow the reaction. Then 4µL of CellTilter-Glo luminescent substrate mix was added to each well. The plate was incubated at room temperature for 15 minutes. The plates were measured on a ViewLux plate reader (PerkinElmer) with clear filter. […] The test volume of 5,000 cells/4 μL/well was selected as the final assay condition in cell density tests based on the assay performance statistics: signal/background ratio, coefficient of variation and Z’-factor (data not shown).
as §5
Another data set deals with caspase-3/7. The data set can be described thus: Caspase-Glo 3/7 activation assay in CLL samples. It counts as cell-based, human. The procedure:
The effect of selected compounds on caspase activity was measured using a homogeneous luminescent method (Caspase-Glo® 3/7, 8 and 9 kits, Promega, Madison, WI). Briefly in this assay, caspase induced by cells cleaves a pro-luciferin substrate where a tetrapeptide caspase substrate - DEVD (asp-glu-val-asp) is cleaved to free aminoluciferin, which can be used as a substrate by luciferase yielding a bioluminescent signal. The luminescent signal is proportional to the amount of caspase activity present in the cells. Cells were dispensed in culture medium at 5,000/cells/5uL/well in 1536-well white/solid-bottom assay plates. The cells were incubated for overnight at 37°C. The compounds (23nL/well) were added via the pin tool. The treated cells were further incubated for 24 h at 37°C, followed by the addition of the Caspase-Glo 3/7, 8 or 9 reagents at 5uL/well. After a 30 min incubation at room temperature, the luminescence intensity of the assay plates was measured using a ViewLux Plate Reader. The caspase activity was normalized to DMSO control.

The subject of data set [4] is lymphocytes from normal donors. The data set can be described thus: cells. Particulars: Homo sapiens, Lymphocyte, read-out: IC50 normal.
Protocol: as §3, §4, §5
The test system of data set [5] is fresh CLL patient lymphocytes. Briefly: cells. As to conditions: Homo sapiens.
Protocol: as §6, §5
Data set [6] has as its system normal and solid tumor cell lines.
Data set [7] has as its system human thioredoxin reductase. On the set-up: method as in PMID 19665452. As to conditions: NADPH-reduced form; cited from earlier work.
Data set [8] deals with lymphocytes from normal donors. Briefly: qHTS luminescent ATP cell viability assay, primary screen, normal donor lymphocytes. As to conditions: differential efficacy or IC50 shift >5-fold. From the text: (§1) Lymphocytes from 13 CLL treatment naïve patients (Table 1 ) and 5 normal donors were obtained by lymphapheresis with written informed consent and isolated by gradient centrifugation using Lymphocyte Separation Medium (MP Biomedicals, Solon, OH) and used fresh or cryopreserved in liquid nitrogen in 10% dimethyl sulfoxide, 90% FCS. CLL patients were consented on the institutional review board (IRB) approved at the National Heart, Lung, and Blood Institute (NHLBI, Office of Clinical Affairs, Bldg 10, CRC. Room 6-5140, Bethesda, Maryland 20892-1608) with protocol 04-H-0012 and samples from normal donors were collected by the Department of Transfusion Medicine, National Institutes of Health (NIH). This study was approved by the IRB mentioned above. Fresh cells were temporally placed on ice and plated for screening within 3 hrs of apheresis. Frozen cells were thawed the night before the assay and incubated in T175 flask in AIM V medium to recover overnight. Analysis of IGHV gene status was performed as described. CLL samples were cultured in AIM V serum free medium (Gibco-Invitrogen, Long Island, NY).
(§2) Compound formatting and qHTS were performed as described previously. The final concentration of the NPC compounds in the 4 µL assay volume ranged from 57 µM to 0.7 nM in 1:5 dilution steps. The positive control plate format was as follows: columns 1 and 3, DMSO only; column 2, doxorubicin, a known cytotoxic chemotherapy agent in a 1:2 dilution series from 10 µM to 5 nM in DMSO; and column 4, doxorubicin at 10 µM in DMSO.
To determine compound activity in the qHTS assay, the concentration-response data for each sample was plotted and modeled by a four parameter logistic fit yielding IC50 and efficacy (maximal response) values as previously described. […] Briefly, raw plate reads for each titration point were first normalized relative to the positive control compound (100%) and DMSO-only wells (basal, 0%), and then corrected by applying a pattern correction algorithm using compound-free control plates (i.e., DMSO-only plates) at the beginning and end of the NPC compound plate stack. […]
A general note: In qHTS, concentration-response curves come from the screen itself.

In data set [9] the test system is lymphocytic leukemia P388. On the set-up: method as in PMID 6778607. Particulars: cited from earlier work.
The subject of the next data set is primary CLL cells. Briefly: qHTS luminescent ATP cell viability assay (CellTiter-Glo), primary screen, frozen CLL patient cells. Particulars: CLL cells, 24 h, Figure 1. It counts as cell-based, human.
From the text: as §1, §2
To determine compound activity in the qHTS assay, the concentration-response data for each sample was plotted and modeled by a four parameter logistic fit yielding IC50 and efficacy (maximal response) values as previously described. Data normalization and curve fitting were performed using in-house informatics tools. Briefly, raw plate reads for each titration point were first normalized relative to the positive control compound (100%) and DMSO-only wells (basal, 0%), and then corrected by applying a pattern correction algorithm using compound-free control plates (i.e., DMSO-only plates) at the beginning and end of the NPC compound plate stack. […] In brief, Class 1.1 and 1.2 were the highest-confidence complete CRCs containing upper and lower asymptotes with efficacies ≥ 80% and < 80%, respectively. Class 2.1 and 2.2 were incomplete CRCs having only one asymptote with efficacy ≥ 80% and < 80%, respectively.
Compounds from the primary qHTS screen were further classified into three categories according to the quality of curve fit and efficacy.

For the next data set, the system named is CLL. On the set-up: method as in PMID 20603650. Particulars: oral, single-agent, treated CLL patients; cited from earlier work.
The mark [10] stands for this setting: read-out: IC50 CLL, average of cells from 7 CLL patients, fresh, Figure 5.
Setting [11] is: Lymphocyte, read-out: IC50 CLL, average of cells from 7 CLL patients, fresh, Figure 5.
Where [12] appears, read: Homo sapiens; CLL samples, 24 hours; read-out: EC50 caspase-3/7 activity.

Consider `Cc1cc(-c2ccc(/N=N/c3c(S(=O)(=O)O)cc4cc(S(=O)(=O)O)cc(N)c4c3O)c(C)c2)ccc1/N=N/c1c(S(=O)(=O)O)cc2cc(S(=O)(=O)O)cc(N)c2c1O` [trypan blue], for which, in data set [1], the “cytotoxicity in ME-180 cells” value was “prominent cytotoxicity”.
As for `COc1cc([C@@H]2c3cc4c(cc3[C@H](O)[C@H]3COC(=O)[C@H]23)OCO4)cc(OC)c1OC` [podofilox], in data set [2], the “cytotoxicity on lymphocytes derived from unaffected donors” value is listed as “almost no cytotoxicity”; the “difference in efficacy between CLL and unaffected donor samples” value (from here on “difference”) is “over 40%”; the “potency shift between CLL and normal donor samples” value is reported as “about 3 fold”. Moreover, the “decreased efficacy against B-cells from normal donors” value in data set [2] (at the testing concentration of 1.7 µM) was “approximately 40%”. For the same molecule, the “efficacy (cytotoxicity)” value in data set [3] (human) is reported as over 60%. In addition, in [3] (setting [10]), the IC50 was under 1000 nM. Also, the IC50 in data set [3] (read-out: IC50 CLL, average of cells from 7 CLL patients, fresh, Figure 5, listed as Podofilox) was 60 nM. Also, in the data set with caspase-3/7 (Homo sapiens, 24 h, read-out: EC50 caspase-3/7 activity), the EC50 was under 100 nM. Further, in data set [4], the IC50 came out at 150 nM.
Turning to `O=C1c2c(O)ccc(O)c2C(=O)c2c(NCCNCCO)ccc(NCCNCCO)c21` [mitoxantrone], the IC50 in [5] (CLL cell, read-out: potency, comparable cell killing against CLL cells and normal lymphocytes) is 6000 nM; in data set [5] (Lymphocyte, 24 h, confirmation assay, fresh CLL samples, Table S1) it was about 5400 nM; in data set [5] (setting [11]) it was 7200 nM; in data set [4], 7000 nM.
Consider `C[C@H]1CC[C@]2(NC1)O[C@H]1C[C@H]3[C@@H]4CC[C@H]5C[C@@H](O[C@@H]6O[C@H](CO)[C@H](O[C@@H]7O[C@H](CO)[C@@H](O)[C@H](O[C@@H]8OC[C@@H](O)[C@H](O)[C@H]8O)[C@H]7O[C@@H]7O[C@H](CO)[C@@H](O)[C@H](O)[C@H]7O)[C@H](O)[C@H]6O)CC[C@]5(C)[C@H]4CC[C@]3(C)[C@H]1[C@@H]2C` [tomatine], for which, in [1], the “cytotoxicity in ME-180 cells” value is “prominent cytotoxicity”.
The same measure, in the same setting: next, `CN(C)c1ccc(C(=C2C=CC(=[N+](C)C)C=C2)c2c(O)c(S(=O)(=O)[O-])cc3cc(S(=O)(=O)[O-])ccc23)cc1.[Na+]` [lissamine green B]: “prominent cytotoxicity”.
With tyrothricin, the “cytotoxicity in ME-180 cells” value in data set [1] was “prominent cytotoxicity”. Also, in [6], the “activity in cytotoxicity profiling assays” value was “pan-active” and the “potency variation across cytotoxicity profiling assays” value is on record as under 5 fold.
For `COc1cccc2c1C(=O)c1c(O)c3c(c(O)c1C2=O)C[C@@](O)(C(=O)CO)C[C@@H]3O[C@H]1C[C@H](N)[C@H](O)[C@H](C)O1` [doxorubicin], the “potency shift between CLL and normal donor samples” value in data set [2] amounted to 3 fold. Moreover, the IC50 in data set [5] (setting [11]) was determined as 4500 nM; in [4], 14400 nM.
As to `CC(=O)OC[C@H]1O[C@@H]([S-])[C@H](OC(C)=O)[C@@H](OC(C)=O)[C@@H]1OC(C)=O.CCP(CC)CC.[Au+]` [auranofin], the “potency shift between CLL and normal donor samples” value is recorded as 30 fold in [2] and “greater than 30 fold” in data set [2] (listed as Auranofin). Also, the IC50 in data set [2] is 2050 nM; in data set [3] (setting [10]), under 1000 nM; in [3] (read-out: IC50 CLL, average of cells from 7 CLL patients, fresh, Figure 5, listed as Auranofin), 70 nM. For the same molecule, at caspase-3/7 (CLL samples, 24 hours; read-out: EC50 caspase-3/7 activity), the EC50 is under 100 nM. In data set [7], the “inhibition of human thioredoxin reductase” value is “strongly inhibit”. The “differential cytotoxicity between CLL cells and lymphocytes from normal donors” value in data set [8] is on record as “differential cytotoxicity”. For the same molecule, in data set [9], the “life span of mice inoculated with lymphocytic leukemia P388” value is given as “effective in increasing the life span”.
For `C[n+]1cc2c3c(ccc2c2ccc4cc5c(cc4c21)OCO5)OCO3` [sanguinarine], the “cytotoxicity in ME-180 cells” value in [1] is reported as “prominent cytotoxicity”.
The molecule `O=C(O)CCCc1ccc(N(CCCl)CCCl)cc1` [chlorambucil] yielded a concentration-response curve class with primary CLL cells of 3. For the same molecule, the IC50 in [5] (Lymphocyte, 24 h) fell in the range of 12000 to 30000 nM. For the same molecule, in the data set with CLL, the “frequency of complete responses” value is “less than 5%”.
With `Nc1ncn([C@@H]2O[C@H](CO)[C@@H](O)[C@H]2O)c(=O)n1` [azacitidine], in [2], the “difference” value is “over 40%”; the “potency shift between CLL and normal donor samples” value is on record as “about 3 fold”; the “decreased efficacy to normal B cells” value is “over 40%”. In data set [5] (setting [11]), the IC50 was found to be 8100 nM. The EC50 in the data set on caspase-3/7 (setting [12]) came out at 5100 nM. Also, in data set [4], the IC50 was found to be 15900 nM. In addition, the “differential cytotoxicity between CLL cells and lymphocytes from normal donors” value in data set [8] was “differential cytotoxicity”.
On to `OC[C@H]1O[C@H]([S-])[C@H](O)[C@@H](O)[C@@H]1O.[Au+]` [aurothioglucose], for which, in data set [7], the “inhibition of human thioredoxin reductase” value is listed as “strongly inhibit”.
Turning to plicamycin, in data set [2], the “difference” value was “over 40%”; the “potency shift between CLL and normal donor samples” value was “about 3 fold”; the IC50 came to 840 nM; the “decreased efficacy to normal B cells” value is reported as “over 40%”. In addition, the IC50 in data set [3] (confirmation assay, fresh CLL samples, 24 h, Table S1) is under 1000 nM. Also, the IC50 in [3] (setting [10]) came out at 750 nM. The EC50 in the data set with caspase-3/7 (read-out: EC50 caspase-3/7 activity; CLL samples, 24 hours) came out at 430 nM.
As for ivermectin, the “cytotoxicity in ME-180 cells” value in [1] is on record as “prominent cytotoxicity”.
Regarding `OCC(S)CS` (stereo not shown) [dimercaprol], in data set [2], the “potency shift between CLL and normal donor samples” value is recorded as 50 fold. Moreover, the IC50 in [3] (setting [10]) was under 1000 nM; in [3] (read-out: IC50 CLL, average of cells from 7 CLL patients, fresh, Figure 5, listed as Dimercaprol) it was 380 nM; in [4] it was 19400 nM. In the data set on caspase-3/7 (setting [12]), the EC50 is under 100 nM. Further, the “differential cytotoxicity between CLL cells and lymphocytes from normal donors” value in data set [8] was “differential cytotoxicity”.
In the case of `CC(=O)[O][Hg][c]1ccccc1` [phenylmercuric acetate], the “cytotoxicity in ME-180 cells” value in data set [1] is “prominent cytotoxicity”.
